Data set [1] is described as follows: Stress test of compositions with different EIDD-1931 concentrations (60° C., 7 and 14 days). In kind it is physicochemical. The conditions noted are these: API. How it is done: Therefore, the concentration of EIDD-1931 was adjusted, and another stress test was conducted to evaluate how the resulting drugs degrade in 7 and 14 days.
Data set [2] can be described thus: Solubility / precipitation in the pharmaceutical solution composition. It is filed as physicochemical. The following applies: drug prepared with 20 mg/ml.

The results in this text go back to US20250186474A1 (CHINA CHEMICAL & PHARMACEUTICAL CO., LTD., priority 2023, published 2025).

Turning to `O=c1nc(NO)ccn1[C@@H]1O[C@H](CO)[C@@H](O)[C@H]1O` [EIDD-1931, β-D-N4-hydroxycytidine], in data set [1], the Single-impurity percentage is given as 0.01/0.01% and the total-impurity percentage was 0.01/0.01%. This molecule also displayed a Theoretical value in data set [1] (impurity test) of 93.25%. For the same molecule, in data set [2], the precipitation result was “had precipitation issues”.
